Experimental data reported in US5258492A, “LHRH analogues with cytotoxic moieties at the sixth position” (The Administrators of the Tulane Educational Fund, priority 1991, dated 1993).
Each block holds one substance with its values, some of them ahead of it.

Tests used:
[1] = system: dispersed rat pituitary cell superfusion system; test: LH release in dispersed rat pituitary cell superfusion system (agonistic activity); format: cell-based; conditions: Table 1; peptide infused 3 min, LH released compared to 3 nM LHRH
Description: *LH responses to the analogues were determined in dispersed rat pituitary
cell superfusion system.

[2] = biological target: T1, membrane receptors of pituitary of male rats (Rattus norvegicus, UniProt P30969); test: Binding affinity for membrane receptors of rat pituitary using 125I-labeled [D-Trp6]LHRH; conditions: Table 1, high affinity binding sites
T1 construct: from tissue; host or cells: pituitary of male rats (membranes)
T1 sequence (P30969 1-327): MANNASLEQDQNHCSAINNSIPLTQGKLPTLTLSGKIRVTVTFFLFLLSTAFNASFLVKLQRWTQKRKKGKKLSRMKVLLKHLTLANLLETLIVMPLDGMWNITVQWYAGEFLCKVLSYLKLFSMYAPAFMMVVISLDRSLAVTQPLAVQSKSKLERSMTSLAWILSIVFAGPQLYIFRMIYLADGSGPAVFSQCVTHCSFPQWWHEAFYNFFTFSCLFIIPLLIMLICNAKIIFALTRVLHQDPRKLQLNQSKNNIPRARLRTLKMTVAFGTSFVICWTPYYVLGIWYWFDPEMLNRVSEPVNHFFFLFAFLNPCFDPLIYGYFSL
Description: (§1) This is determined by using labelled LHRH and [D-Trp^6 ]LHRH. The assay is carried out similarly to that described by T. Kadar et al., Proc. Natl. Acad. Sci. USA, 85, 890-894 (1988).
(§2) Table 2 presents the antiovulatory activity of the claimed compounds having LHRH-inhibiting properties. The inhibitory action was determined in vivo, in 4-day cycling rats as described [A. Corbin and C. W. Beattie, Endocr. Res. Commun., 2, 1-23 (1975)]. Affinities of the claimed compounds to membrane receptors of rat pituitary and human breast cancer cells are also given in Tables 1 and 2 as determined by using [^125 I,D-Trp^6 ]LHRH.
(§3) **Affinity constants of the peptides for the first receptor class (i.e.
(§4) for high affinity binding sites) of pituitary of male rats and human
(§5) breast cancer cells, respectively, as determined by using ^125
(§6) Ilabeled [DTrp^6 ]LHRH.
(§7) breast cancer cells, respectively, were determined by using ^125

[3] = biological target: T2, membrane receptors of human breast cancer cells (Homo sapiens, UniProt P30968); test: Binding affinity for membrane receptors of human breast cancer cells using 125I-labeled [D-Trp6]LHRH; conditions: Table 1, high affinity binding sites
T2 construct: endogenous in cells; host or cells: human breast cancer cells (membranes)
T2 sequence (P30968 1-328): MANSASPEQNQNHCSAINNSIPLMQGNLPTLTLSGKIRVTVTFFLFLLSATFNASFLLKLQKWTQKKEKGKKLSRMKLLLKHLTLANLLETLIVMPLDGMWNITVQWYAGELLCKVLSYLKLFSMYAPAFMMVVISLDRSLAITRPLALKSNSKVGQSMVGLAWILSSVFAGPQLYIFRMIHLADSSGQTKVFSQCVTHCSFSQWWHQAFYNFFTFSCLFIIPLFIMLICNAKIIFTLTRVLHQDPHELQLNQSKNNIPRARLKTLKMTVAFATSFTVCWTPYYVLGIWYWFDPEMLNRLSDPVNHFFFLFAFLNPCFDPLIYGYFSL
Description: as §1, §2, §3, §4, §5, §6, §7

[4] = system: rat mammary tumor cell line MT-4; test: Inhibition of 3H-thymidine incorporation into DNA of MT-4 monolayer cultures; format: cell-based; conditions: for DPM/Well × 1000: mean +/- standard error
Description: (d) Ability of peptides of Formula I to inhibit incorporation of [^3 H]thymidine into DNA of monolayer cultures the rat mammary tumor cell line MT-4
This is assayed as described [V. K. Sondak et al., Cancer Research, 44, 1725-1728 (1984); F. Holzel et al., J. Cancer Res. Clin. Oncol. 109, 217-226 (1985); M. Albert et al., J. Cancer Res. Clin. Oncol. 109, 210-216 (1985)].
To obtain information about the cytotoxic properties of the compounds, the inhibition of ^3 H-thymidine incorporation into DNA of monolayer cultures of the rat mammary tumor cell line MT-4 was studied. Experiments started with 100K MT-4 cells/plate on day 0. Dose was changed 3 times, total incubation time with the sample was 5 days. 1 μCu ^3 H-thymidine/ml was added on day 4.

[5] = DME Medium + 0% Serum, 1 ng/ml (6 × 10^-10 M)
[6] = DME Medium + 0% Serum, 10 ng/ml
[7] = DME Medium + 0% Serum, 100 ng/ml
[8] = DME Medium + 0% Serum, 1000 ng/ml
[9] = DME Medium + 0% Serum, 2000 ng/ml
[10] = DME Medium + 10% Serum, 1 ng/ml (6 × 10^-10 M)
[11] = DME Medium + 10% Serum, 10 ng/ml
[12] = DME Medium + 10% Serum, 100 ng/ml
[13] = DME Medium + 10% Serum, 1000 ng/ml
[14] = DME Medium + 10% Serum, 2000 ng/ml

Substance: pGlu-His-Trp-Ser-Tyr-D-Lys[(Cu^++)(SAL)2 (A2 pr)]-Leu-Arg-Pro-Gly-NH2 [Example VII]
- Hormonal activity, LH responses rel. to LHRH (= 1) [1]: 10
- Binding affinity, Ka1, for membrane receptors of pituitary [2]: 7.968 nM⁻¹
- Binding affinity, Ka1, for membrane receptors of cancer cells [3]: 3.589 nM⁻¹
- % Inhibition [4, 5]: 41%
- DPM/Well × 1000 [4, 5]: 249 +/- 30.5 DPM/Well × 1000
- % Inhibition [4, 6]: 42%
- DPM/Well × 1000 [4, 6]: 242 +/- 32.1 DPM/Well × 1000
- % Inhibition [4, 7]: 56%
- DPM/Well × 1000 [4, 7]: 186 +/- 13.2 DPM/Well × 1000
- % Inhibition [4, 8]: 52%
- DPM/Well × 1000 [4, 8]: 204 +/- 40.9 DPM/Well × 1000
- % Inhibition [4, 9]: 41%
- DPM/Well × 1000 [4, 9]: 249 +/- 45.1 DPM/Well × 1000
- % Inhibition [4, 10]: 53%
- DPM/Well × 1000 [4, 10]: 48 +/- 8.6 DPM/Well × 1000
- % Inhibition [4, 11]: 61%
- DPM/Well × 1000 [4, 11]: 40 +/- 6.7 DPM/Well × 1000
- % Inhibition [4, 12]: 59%
- DPM/Well × 1000 [4, 12]: 42 +/- 10.4 DPM/Well × 1000
- % Inhibition [4, 13]: 65%
- DPM/Well × 1000 [4, 13]: 36 +/- 5.1 DPM/Well × 1000
- % Inhibition [4, 14]: 62%
- DPM/Well × 1000 [4, 14]: 39 +/- 4.6 DPM/Well × 1000
- inhibition of 3H-thymidine incorporation into DNA (in words) ([4]; concentration of 6×10^-10 M): strong inhibitory effect

Substance: pGlu-His-Trp-Ser-Tyr-D-Lys[(Cu^++)(FUR)2 (DL-A2 pr)]-Leu-Arg-Pro-Gly-NH2 [XVII]
- Hormonal activity, LH responses rel. to LHRH (= 1) [1]: 10
- Binding affinity, Ka1, for membrane receptors of pituitary [2]: 1.770 nM⁻¹
- Binding affinity, Ka1, for membrane receptors of cancer cells [3]: 0.536 nM⁻¹

Substance: pGlu-His-Trp-Ser-Tyr-D-Lys[(Cu^++)(PEN)2 (A2 pr)]-Leu-Arg-Pro-Gly-NH2 [Example XXI]
- Hormonal activity, LH responses rel. to LHRH (= 1) [1]: 10.6
- Binding affinity, Ka1, for membrane receptors of pituitary [2]: 10.989 nM⁻¹
- Binding affinity, Ka1, for membrane receptors of cancer cells [3]: 5.096 nM⁻¹

Substance: pGlu-His-Trp-Ser-Tyr-D-Lys[(Cu^++)(POLP)2 (DL-A2 bu)]-Leu-Arg-Pro-Gly-NH2 [Example XVI]
- Hormonal activity, LH responses rel. to LHRH (= 1) [1]: 1.5
- Binding affinity, Ka1, for membrane receptors of pituitary [2]: 9.751 nM⁻¹
- Binding affinity, Ka1, for membrane receptors of cancer cells [3]: 5.038 nM⁻¹

More lines, main results first:

- Binding affinity, Ka1, for membrane receptors of pituitary [2]: 8.676 nM⁻¹
- Binding affinity, Ka1, for membrane receptors of cancer cells [3]: 4.528 nM⁻¹
Substance: pGlu-His-Trp-Ser-Tyr-D-Lys[Cu^++)(POLP)2 (A2 pr)]-Leu-Arg-Pro-Gly-NH2 [XIX]
- Hormonal activity, LH responses rel. to LHRH (= 1) [1]: 0.3

- Binding affinity, Ka1, for membrane receptors of pituitary [2]: 6.457 nM⁻¹
- Binding affinity, Ka1, for membrane receptors of cancer cells [3]: 3.334 nM⁻¹
Substance: [D-Lys[(Ni^++)(SAL)2(D-A2 pr)]^6 ]LHRH [VIIIB]
- Hormonal activity, LH responses rel. to LHRH (= 1) [1]: 10

- Binding affinity, Ka1, for membrane receptors of pituitary [2]: 4.513 nM⁻¹
- Binding affinity, Ka1, for membrane receptors of cancer cells [3]: 2.236 nM⁻¹
Substance: pGlu-His-Trp-Ser-Tyr-D-Lys[(Ni^++)(CISAL)2 (DL-A2 pr)]-Leu-Arg-Pro-Gly-NH2 [Example X]
- Hormonal activity, LH responses rel. to LHRH (= 1) [1]: 4

- Binding affinity, Ka1, for membrane receptors of pituitary [2]: 3.285 nM⁻¹
- Binding affinity, Ka1, for membrane receptors of cancer cells [3]: 1.743 nM⁻¹
Substance: pGlu-His-Trp-Ser-Tyr-D-Lys[(PtCl2)(DL-A2 pr)]-Leu-Arg-Pro-Gly-NH2 [Example III]
- Hormonal activity, LH responses rel. to LHRH (= 1) [1]: 55

- Binding affinity, Ka1, for membrane receptors of pituitary [2]: 3.051 nM⁻¹
- Binding affinity, Ka1, for membrane receptors of cancer cells [3]: 1.348 nM⁻¹
Substance: [D-Lys[(Cu^++)(SAL)2 (L-A2 pr)]^6 ]LHRH [VIA]
- Hormonal activity, LH responses rel. to LHRH (= 1) [1]: 12

- Binding affinity, Ka1, for membrane receptors of pituitary [2]: 5.817 nM⁻¹
- Binding affinity, Ka1, for membrane receptors of cancer cells [3]: 3.005 nM⁻¹
Substance: pGlu-His-Trp-Ser-Tyr-D-Lys[Cu^++)(POL)2 (DL-A2 pr)]-Leu-Arg-Pro-Gly-NH2 [XVIII]
- Hormonal activity, LH responses rel. to LHRH (= 1) [1]: 9
